# Test results published in patent publication US20150112057A1, “NOVEL CRYSTALLINE CEFOPERAZONE INTERMEDIATE” (DSM Sinochem Pharmaceuticals Netherlands B.V., priority 2011, published 2015).
# Key:
# [1] = Chemical degradation of 7-TMCA to 5-mercapto-1-methyltetrazole during dissolution and enzymatic condensation; assay type: physicochemical; conditions: during the dissolution step, titration with aqueous NaOH 5M
# Protocol: (§1) The reactions were followed by quantitative HPLC analysis. The retention factors of 7-TMCA, HPGM, HPG and 5-mercapto-1-methyltetrazole were calculated using standards; the retention factor of D-7-(4-hydroxyphenylacetamido)-3-(1-methyl-1H-tetrazol-5-yl)thiomethylcephem-4-carboxylic acid was deducted based on mass balance in the first experiments and subsequently calculated using standard; the retention factor of cefatrizine was deducted on mass balance.
# 7-Amino-3-(1-methyl-1H-tetrazol-5-ylthiomethyl)-3-cephem-4-carboxylic acid (7-TMCA; 5 g) was added to distilled water (38 g) and cooled to 3° C. The mixture was stirred at 400 rpm and the pH was brought to 9.0 with aqueous NaOH (5M) whereafter the remainder of the reaction was carried out at pH 8.8. After 60-80 min, the suspension was filtered. The filtrate, containing 4.1 g of 7-TMCA, was place back in the reactor and immobilized penicillin G acylase mutant 1 (3.5 g, see Materials and Methods) was added and to the resulting mixture a solution of D-4-hydroxyphenylglycine methylester (HPGM) was dropped at speed of 7 mL/h by a syringe pump (dosing time 2 h). This solution was prepared by dissolving HPGM (4.0 g, 1.7 equiv.) in water (6.4 g) and H2SO4 25% (4.25 g in water). The enzymatic reaction was followed by analytical HPLC (see Materials and Methods) and stopped at the end of HPGM addition, by enzyme filtration. […]
# [2] = target: T1, immobilized penicillin G acylase mutant 1 (Escherichia coli, UniProt P06875, F313A/F749L/S29L/V218E/V437L); assay: Enzymatic hydrolysis of HPGM to HPG; assay type: biochemical; conditions: water pH 8.7, 2° C., immobilized penicillin G acylase mutant 1 (5 g)
# T1 construct: mutations V11A, A:S3L, A:V192E, B:F24A, B:V148L and B:F460L; made in house
# From the text: The production, isolation and purification of wild type and mutant penicillin G acylases may be carried out as described in WO 1996/005318 and WO 2003/055998. Alternatively, genes encoding mutant penicillin G acylases may be obtained by gene synthesis. Production of the mutant penicillin G acylase was achieved by cloning the genes encoding mutant penicillin G acylases into an appropriate expression vector, transforming a suitable host such as Escherichia coli with said vector and culturing the transformed host under conditions suitable for the production of the mutant penicillin G acylases and recovery and purification of the mutants was carried out as described in WO 2010/072765. […]
# as §1
# During the enzymatic condensation of 7-TMCA and HPGM the latter compound was hydrolyzed to HPG. […] In one of the reactors immobilized penicillin G acylase mutant 1 (5 g) was added and the two reactions were monitored by analytical HPLC.
# [3] = Chemical hydrolysis of HPGM to HPG (chemical blank, no enzyme); assay type: physicochemical; conditions: water pH 8.7, 2° C.
# Protocol: as §1
# During the enzymatic condensation of 7-TMCA and HPGM the latter compound was hydrolyzed to HPG. […] Two reactions were started in parallel at 2° C. […] In one of the reactors immobilized penicillin G acylase mutant 1 (5 g) was added and the two reactions were monitored by analytical HPLC.
amount of 5-mercapto-1-methyltetrazole (degradation product of 7-TMCA) [1],SMILES,time to complete conversion of HPGM to HPG by the enzyme [2] [min],HPGM hydrolyzed in the chemical blank ([3]; 20 h) [%],formation of HPG from HPGM in the chemical blank ([3]; within 2 h)
not detectable,"Cn1nnnc1SCC1=C(C(=O)O)N2C(=O)[C@@H](N)[C@H]2SC1 [Example 7-TMCA, 7-amino-3-(1-methyl-1H-tetrazol-5-ylthiomethyl)-3-cephem-4-carboxylic acid]",–,–,–
–,"COC(=O)[C@H](N)c1ccc(O)cc1 [HPGM, D-4-hydroxyphenylglycine methylester]",≤ 5,9,no HPG was recorded
